Reference: ChEMBL document CHEMBL5113512, “β-Nitrostyrene derivatives as broad range potential antifungal agents targeting fungal cell wall” (2022)
Converted amounts (≈) assume the structure as drawn. The source made the active and inactive calls. The calls are words filed in the database; no cut-off is given here.

Legend:
[1] = system: Candida albicans; assay: Antifungal activity against Candida albicans ATCC 24433 overexpressing ADCaMDR1-GFP assessed as inhibition of fungal growth by broth microdilution method; assay type: functional
[2] = system: Candida albicans; assay: Synergistic antifungal activity against Candida albicans ATCC 24433 overexpressing ADCaMDR1-GFP assessed as fractional inhibitory concentration index incubated for 48 hrs in presence of caspofungin by checker board assay; assay type: functional
[3] = system: Candida albicans; assay: Antifungal activity against Candida albicans ATCC 24433 assessed as inhibition of fungal growth by broth microdilution method; assay type: functional
[4] = system: [Candida] auris; assay: Synergistic antifungal activity against Candida auris CBS10913 assessed as inhibition of fungal growth incubated for 48 hrs in presence of SDS by checker board assay; assay type: functional; conditions: Candidozyma auris
[5] = system: Candida; assay: Upregulation of GAL4 gene expression in Candida cells; assay type: functional, cell-based
[6] = system: Candida albicans; assay: Antifungal activity against Candida albicans ATCC 24433 overexpressing transporter protein GU5 assessed as inhibition of fungal growth by broth microdilution method; assay type: functional
[7] = system: Candida albicans; assay: Synergistic antifungal activity against wild type Candida albicans SN152 assessed as fractional inhibitory concentration index incubated for 48 hrs in presence of Caspofungin by checker board assay; assay type: functional
[8] = system: Candida albicans; assay: Induction of ROS generation in Candida albicans ATCC 24433 assessed as increase in relative fluorescence unit at sub-inhibitory concentration incubated for 1 hr by DCFDA staining-based flow cytometric analysis; assay type: functional, organism-based
[9] = system: Candida; assay: Downregulation of PGA13 gene expression in Candida cells; assay type: functional, cell-based
[10] = system: Candida albicans; assay: Antifungal activity against Candida albicans ATCC 24433 overexpressing transporter protein F2 assessed as inhibition of fungal growth by broth microdilution method; assay type: functional
[11] = system: [Candida] auris; assay: Synergistic antifungal activity against Candida auris CBS10913 assessed as inhibition of fungal growth incubated for 48 hrs in presence of Congo red by checker board assay; assay type: functional; conditions: Candidozyma auris
[12] = system: [Candida] auris; assay: Synergistic antifungal activity against Candida auris CBS10913 assessed as inhibition of fungal growth incubated for 48 hrs in presence of Calcoflour White by checker board assay; assay type: functional; conditions: Candidozyma auris
[13] = system: Candida parapsilosis; assay: Antifungal activity against Candida parapsilosis ATCC 90018 assessed as inhibition of fungal growth by broth microdilution method; assay type: functional; conditions: Lodderomyces parapsilosis
[14] = system: Candida; assay: Downregulation of CCT2 gene expression in Candida cells; assay type: functional, cell-based
[15] = system: Candida; assay: Downregulation of CCT3 gene expression in Candida cells; assay type: functional, cell-based
[16] = system: Candida; assay: Upregulation of ARG1 gene expression in Candida cells; assay type: functional, cell-based
[17] = system: Candida parapsilosis; assay: Synergistic antifungal activity against Candida parapsilosis ATCC 90018 assessed as inhibition of fungal growth incubated for 48 hrs in presence of Congo red by checker board assay; assay type: functional; conditions: Lodderomyces parapsilosis
[18] = system: Candida; assay: Downregulation of PGA48 gene expression in Candida cells; assay type: functional, cell-based
[19] = system: Cell membrane; assay: Disruption of membrane integrity in Candida albicans ATCC 24433 assessed as cell shrinkage and lysis by measuring leakage of intracellular material measured after 6 hrs by SEM analysis; assay type: subcellular
[20] = system: Candida parapsilosis; assay: Synergistic antifungal activity against Candida parapsilosis ATCC 90018 assessed as Congo red MIC incubated for 48 hrs by checker board assay; assay type: functional; conditions: Lodderomyces parapsilosis
[21] = system: Candida; assay: Downregulation of SSZ1 gene expression in Candida cells; assay type: functional, cell-based
[22] = system: Candida; assay: Upregulation of PLB5 gene expression in Candida cells; assay type: functional, cell-based
[23] = system: Candida albicans; assay: Synergistic antifungal activity against Candida albicans ATCC 24433 overexpressing ADPDR5-G assessed as fractional inhibitory concentration index incubated for 48 hrs in presence of caspofungin by checker board assay; assay type: functional
[24] = system: Candida albicans; assay: Synergistic antifungal activity against Candida albicans SN152 harboring CAS5 mutant assessed as inhibition of fungal growth incubated for 48 hrs in presence of Amphotericin B by checker board assay; assay type: functional
[25] = system: Candida parapsilosis; assay: Synergistic antifungal activity against Candida parapsilosis ATCC 90018 assessed as inhibition of fungal growth incubated for 48 hrs in presence of Calcoflour White by checker board assay; assay type: functional; conditions: Lodderomyces parapsilosis
[26] = system: Candida; assay: Upregulation of LSC1 gene expression in Candida cells; assay type: functional, cell-based
[27] = system: Candida parapsilosis; assay: Synergistic antifungal activity against Candida parapsilosis ATCC 90018 assessed as fractional inhibitory concentration index incubated for 48 hrs in presence of SDS by checker board assay; assay type: functional
[28] = system: Candida; assay: Downregulation of CCT6 gene expression in Candida cells; assay type: functional, cell-based
[29] = system: [Candida] auris; assay: Antifungal activity against Candida auris 118 assessed as inhibition of fungal growth by broth microdilution method; assay type: functional; conditions: Candidozyma auris
[30] = system: Candida albicans; assay: Inhibition of drug efflux in Candida albicans ATCC 24433 overexpressing ADCDR1-GFP assessed as reduction in rhodamine 6g efflux preincubated for 45 mins followed by substrate addition and measured after 30 mins; assay type: functional; conditions: dose 0.1-100 µg/ml, time 75.0 min, DDE = dose-dependent effect

With `O=[N+]([O-])/C=C/c1ccc(O)cc1` the MIC80 [1] was 4 µg/mL (≈ 24.2 µM), the “fractional inhibitory concentration index (FICI)” value [2] was under 0.5 and the MIC80 [3] was 4 µg/mL (≈ 24.2 µM). The MIC [4] was 0.5 µg/mL, the Activity [5] was “Active” and the MIC80 [6] was 4 µg/mL (≈ 24.2 µM). The “fractional inhibitory concentration index (FICI)” value [7] was 0.257, the Activity [8] was “Active” and the Activity [9] was “Active”. For the same molecule, the MIC80 [10] was 2 µg/mL (≈ 12.1 µM), the MIC [11] was 0.125 µg/mL and the MIC [12] was 0.25 µg/mL. The MIC80 [13] was 8 µg/mL (≈ 48.4 µM), the Activity [14] was “Active” and the Activity [15] was “Active”. The Activity [16] was “Active”, the MIC [17] was 0.0312 µg/mL and the Activity [18] was “Active”. For the same molecule, the Activity [19] was “Active”, the MIC [20] was 6.25 µg/mL and the Activity [21] was “Active”. For the same molecule, the Activity [22] was “Active”, the “fractional inhibitory concentration index (FICI)” value [23] was under 0.5 and the MIC [24] was 0.0312 µg/mL. For the same molecule, the MIC [25] was 0.0078 µg/mL, the Activity [26] was “Active” and the “fractional inhibitory concentration index (FICI)” value [27] was 0.375. The Activity [28] was “Active”, the MIC80 [29] was 4 µg/mL (≈ 24.2 µM) and the inhibition [30] was “Dde”.
